Source: ChEMBL document CHEMBL1777728, “Amino-caprolactam γ-secretase inhibitors showing potential for the treatment of Alzheimer's disease” (Bioorg Med Chem Lett, 2011)

Columns and labels:
[1] = Inhibition of gamma-secretase-mediated APP cleavage assessed as amyloid beta40 level after 2 hrs by ELISA
[2] = Inhibition of gamma-secretase-mediated notch cleavage after 2 hrs by ELISA
[3] = Selectivity ratio of IC50 for gamma-secretase-mediated notch cleavage to IC50 gamma-secretase-mediated APP cleavage
MDCK = experiment: Efflux ratio of permeability from basolateral to apical over apical to basolateral side in human MDR1 transfected MDCK cells at 5 uM after 120 mins by LC-MS/MS analysis; format: ADME, cell-based, Canis lupus familiaris; conditions: dog, 2 h
Mus musculus [4] = experiment: Neuroprotective activity in wild type FVB mouse brain assessed as reduction of amyloid beta x-40 level at 100 mg/kg, ip; format: functional; conditions: route intraperitoneal
Mus musculus [5] = experiment: Neuroprotective activity in P-gp KO (MDR1 ab-/-) mouse brain assessed as reduction of amyloid beta x-40 level at 100 mg/kg, ip; format: functional; conditions: route intraperitoneal

Row | Structure (SMILES) | IC50 [1] | IC50 [2] | Ratio IC50 [3] | Ratio (MDCK) | inhibition in vivo at 100 mg/kg (Mus musculus [4]) | inhibition in vivo at 100 mg/kg (Mus musculus [5])
1 | CC(C)(C)CNC(=O)c1ccc(CN([C@@H]2CCCCNC2=O)S(=O)(=O)c2ccc(Cl)cc2)cc1 | 30 nM | 55 nM | 2 | – | – | –
2 | O=C1NCCCC[C@H]1N(Cc1nccs1)S(=O)(=O)c1ccc(Cl)cc1 | 1830 nM | 1830 nM | 1 | – | – | –
3 | O=C1NCCCC[C@H]1N(CC1CCc2ccccc2O1)S(=O)(=O)c1ccc(Cl)cc1 (some centres not stated) | 131 nM | 196 nM | 1 | – | – | –
4 | O=C1NCCCC[C@H]1N(Cc1ccc2nsnc2c1)S(=O)(=O)c1ccc(Cl)cc1 | 13 nM | 39 nM | 3 | 2 | – | –
5 | O=C1NCCCC[C@H]1N(Cc1cc2ccccc2s1)S(=O)(=O)c1ccc(Cl)cc1 | 7 nM | 46 nM | 6 | – | – | –
6 | CCCNC(=O)c1ccc(CN([C@@H]2CCCCNC2=O)S(=O)(=O)c2ccc(Cl)cc2)cc1 | 45 nM | 26 nM | 0.5 | – | – | –
7 | Cn1c(CN([C@@H]2CCCCNC2=O)S(=O)(=O)c2ccc(Cl)cc2)cc2ccccc21 | 565 nM | 2790 nM | 5 | – | – | –
8 | O=C1NCCCC[C@H]1N(Cc1cnc2ccccc2c1)S(=O)(=O)c1ccc(Cl)cc1 | 52 nM | 126 nM | 2 | – | – | –
9 | O=C1NCCCC[C@H]1N(Cc1ccc2c(c1)OCCO2)S(=O)(=O)c1ccc(Cl)cc1 | 9 nM | 152 nM | 17 | 2.7 | – | –
10 | COc1cc(CN([C@H]2CCCCNC2=O)S(=O)(=O)c2ccc(Cl)cc2)ccc1OCCc1scnc1C | 2000 nM | – | – | – | – | –
11 | Cn1nnc2cc(CN([C@@H]3CCCCNC3=O)S(=O)(=O)c3ccc(Cl)cc3)ccc21 | 12 nM | – | – | – | – | –
12 | Cc1ccc(CN([C@@H]2CCCCNC2=O)S(=O)(=O)c2ccc(Cl)cc2)o1 | 432 nM | 601 nM | 1 | – | – | –
13 | Cc1cccc(CN([C@@H]2CCCCNC2=O)S(=O)(=O)c2ccc(Cl)cc2)n1 | 5360 nM | 9320 nM | 2 | – | – | –
14 | COc1cc(CN(C2CCCCNC2=O)S(=O)(=O)c2ccc(Cl)cc2)ccc1OCCc1scnc1C (configuration not stated) | 1700 nM | – | – | – | – | –
15 | O=C(Nc1ccccc1)c1ccc(CN([C@@H]2CCCCNC2=O)S(=O)(=O)c2ccc(Cl)cc2)cc1 | 76 nM | 91 nM | 1 | – | – | –
16 | O=C(NCc1ccccc1)c1ccc(CN([C@@H]2CCCCNC2=O)S(=O)(=O)c2ccc(Cl)cc2)cc1 | 9 nM | 16 nM | 2 | – | – | –
17 | O=C(NC1CCC1)c1ccc(CN([C@@H]2CCCCNC2=O)S(=O)(=O)c2ccc(Cl)cc2)cc1 | 23 nM | 49 nM | 2 | – | – | –
18 | Cc1ccc(CN([C@@H]2CCCCNC2=O)S(=O)(=O)c2ccc(Cl)cc2)s1 | 81 nM | – | – | – | – | –
19 | O=C(NC1CCCC1)c1ccc(CN([C@@H]2CCCCNC2=O)S(=O)(=O)c2ccc(Cl)cc2)cc1 | 23 nM | 14 nM | 0.6 | – | – | –
20 | O=C1NCCCC[C@H]1N(Cc1cnc2ncccc2c1)S(=O)(=O)c1ccc(Cl)cc1 | 290 nM | 1050 nM | 4 | – | – | –
21 | CC(C)NC(=O)c1ccc(CN([C@@H]2CCCCNC2=O)S(=O)(=O)c2ccc(Cl)cc2)cc1 | 30 nM | 66 nM | 2 | – | – | –
22 | COC(=O)c1ccc(CN([C@@H]2CCCCNC2=O)S(=O)(=O)c2ccc(Cl)cc2)cc1 | 3 nM | – | – | – | – | –
23 | O=C1NCCCC[C@H]1N(Cc1ccc2ncccc2c1)S(=O)(=O)c1ccc(Cl)cc1 | 6 nM | 4 nM | 0.6 | 1.8 | 20% | 62%
24 | COc1cc(CN([C@@H]2CCCCNC2=O)S(=O)(=O)c2ccc(Cl)cc2)ccc1OCCc1scnc1C | 170 nM | – | – | – | – | –
25 | O=C1NCCCC[C@H]1N(Cc1ccc2nccnc2c1)S(=O)(=O)c1ccc(Cl)cc1 | 15 nM | 28 nM | 2 | 1.8 | 26% | 61%
26 | O=C(NC1CC1)c1ccc(CN([C@@H]2CCCCNC2=O)S(=O)(=O)c2ccc(Cl)cc2)cc1 | 31 nM | 65 nM | 2 | – | – | –
27 | COc1ccc(CN([C@@H]2CCCCNC2=O)S(=O)(=O)c2ccc(Cl)cc2)cc1OC | 170 nM | – | – | – | – | –
28 | O=C1NCCCC[C@H]1N(Cc1csnn1)S(=O)(=O)c1ccc(Cl)cc1 | 758 nM | 2120 nM | 3 | – | – | –
29 | O=C1NCCCC[C@H]1N(Cc1cc2ccccc2o1)S(=O)(=O)c1ccc(Cl)cc1 | 12 nM | 30 nM | 2 | – | – | –
30 | O=C1NCCCC[C@H]1N(Cc1ccc2snnc2c1)S(=O)(=O)c1ccc(Cl)cc1 | 8 nM | 25 nM | 3 | 2 | 32% | 60%
